The values below come from ChEMBL document CHEMBL1201862, “PubChem BioAssay data set” (2004).

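48-hour exposure; five concentrations; linearly interpolated endpoints. GI50 marks 50% less growth.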 Calls of active or inactive are those of the source. No stated cut-off is given here; in the data, active = GI50 up to about 1.1 µM and inactive = higher. Some results are limits rather than exact numbers.

Test systems include COLO 205; NCI-H460; DU-145; MDA-MB-231; NCI-H226; SK-MEL-28; PC-3; MOLT-4; OVCAR-5; SF-268; HCT-15; MCF7; LOX IMVI; HL-60; OVCAR-3; HCT-116; TK-10; CAKI-1; 786-0.
Common to all, as to experiment: inhibition of tumour cell growth, NCI panel, 48 h

In the case of `N#Cc1c(N)[nH]c2ccc(Sc3ccccc3)cc12`, the GI50 with COLO 205 is 323 nM (active); with NCI-H460 it was 201 nM (active); in the experiment on DU-145, 721 nM (active); in the experiment on MDA-MB-231, 881 nM (active); in the experiment on NCI-H226, 457 nM (active); in the experiment with SK-MEL-28 it was 141 nM (active). The GI50 with PC-3 was 275 nM (active); with MOLT-4, 143 nM (active); with OVCAR-5, 964 nM (active); in the experiment with SF-268 it was 248 nM (active); with HCT-15, 98 nM; in the experiment with MCF7, < 71.1 nM (active). Also, the GI50 with LOX IMVI was 213 nM (active); in the experiment with HL-60 it was 33.3 nM (active); in the experiment with OVCAR-3, 215 nM (active); with HCT-116 it was 111 nM (active); in the experiment with TK-10, 1800 nM (inactive); in the experiment on CAKI-1 it was 216 nM (active). Moreover, the GI50 in the experiment on 786-0 is 152 nM (active).

Regarding `CN(C)/C=N/S(=O)(=O)c1nn2c(C=O)c(-c3ccc(-c4ccccc4)cc3)nc2s1`, the GI50 is 2560 nM (inactive) in the experiment on COLO 205; 5510 nM (inactive) in the experiment with NCI-H460; 2400 nM (inactive) in the experiment with DU-145; 2990 nM (inactive) in the experiment with MDA-MB-231; 13300 nM (inactive) in the experiment on NCI-H226; 1980 nM (inactive) with SK-MEL-28. Further, the GI50 with PC-3 is 2000 nM (inactive); in the experiment on MOLT-4, 283 nM (active); in the experiment with OVCAR-5, 6890 nM (inactive); in the experiment on SF-268, 2100 nM (inactive); with HCT-15 it was 2260 nM; in the experiment on MCF7, 838 nM (active). In addition, the GI50 is 753 nM (active) in the experiment on LOX IMVI; 141 nM (active) with HL-60; 1920 nM (inactive) in the experiment on OVCAR-3; 1000 nM (active) in the experiment on HCT-116; 1830 nM (inactive) in the experiment with TK-10; 1310 nM (inactive) in the experiment with CAKI-1. In addition, in the experiment with 786-0, the GI50 is 927 nM (active).

Regarding `O=C(CP(=O)(c1ccccc1)c1ccccc1)c1cccc(C(=O)CP(=O)(c2ccccc2)c2ccccc2)c1`, the GI50 was > 100000 nM (inactive) with COLO 205; > 100000 nM (inactive) in the experiment with NCI-H460; > 100000 nM (inactive) with DU-145; > 100000 nM (inactive) in the experiment on MDA-MB-231; 95100 nM (inactive) in the experiment with NCI-H226; > 100000 nM (inactive) with SK-MEL-28. For the same compound, the GI50 with PC-3 was > 100000 nM (inactive); in the experiment with MOLT-4 it was > 100000 nM (inactive); with OVCAR-5, 58600 nM (inactive); in the experiment on SF-268, 30200 nM (inactive); in the experiment with HCT-15, > 100000 nM; with MCF7 it was 98600 nM (inactive). Also, the GI50 is > 100000 nM (inactive) in the experiment with HL-60; 48900 nM (inactive) in the experiment on HCT-116; 48600 nM (inactive) with TK-10; > 100000 nM (inactive) with CAKI-1; 37800 nM (inactive) in the experiment on 786-0.

`COc1cc2c(cc1OCCCOc1cc3c(cc1OC)C(=O)N1CCC[C@H]1CN3)N=C[C@@H]1CCCN1C2=O`: the GI50 was 108 nM (active) in the experiment with COLO 205; 228 nM (active) with NCI-H460; 357 nM (active) in the experiment with DU-145; 145 nM (active) with MDA-MB-231; 78.2 nM (active) in the experiment with NCI-H226; 202 nM (active) in the experiment on SK-MEL-28. Moreover, the GI50 in the experiment on PC-3 is 279 nM (active); in the experiment with MOLT-4, 11 nM (active); in the experiment with OVCAR-5 it was 182 nM (active); in the experiment on SF-268 it was 23.4 nM (active); with HCT-15, 1860 nM; in the experiment with MCF7, < 39.1 nM (active). Further, the GI50 in the experiment on LOX IMVI is 37.1 nM (active); in the experiment with HL-60 it was 29.1 nM (active); in the experiment on OVCAR-3 it was 92.9 nM (active); with HCT-116, 124 nM (active); in the experiment on TK-10, 163 nM (active); in the experiment on CAKI-1 it was 324 nM (active). Besides, the GI50 with 786-0 was 65.6 nM (active).
